Assay results as given in paper PMC12135508 (Antimicrobial Agents and Chemotherapy, 2025).
Where two headings read alike, the source gives them in different places. Marks after values point to notes of the source that are not given here.

Tests used:
E. coli TOP10F´ = assay: microbe, parasite or virus in culture; format: cell-based; details: Escherichia coli, read-out: Minimum inhibitory concentration
Source text: (§1) The KPC-2 gene was recovered from a clinical Klebsiella pneumoniae strain previously characterized in our laboratory ([46]). E. coli TOP10 F´ (Invitrogen, USA) and E. coli BL21(DE3) (Novagen, Germany) were used as hosts for transformation experiments, to obtain recombinant clones for antimicrobial susceptibility and overexpression assays, respectively. Escherichia coli ATCC 25922 and ATCC 35218 were used as control strains for antimicrobial susceptibility assays.
(§2) Minimum inhibitory concentrations (MICs) of different β-lactams and combinations with β-lactamase inhibitors were determined by an adaptation of the broth microdilution method by the CLSI ([49]), as follows. As we used E. coli recombinant clones harboring pMBLe/bla constructions, where protein production is regulated by isopropyl-β-D-thiogalactoside (IPTG) induction ([47]), antimicrobial susceptibility assays were performed using Mueller Hinton broth supplemented with 50 µM IPTG. Also, as control strains we included the E. coli Top10F’ (used as recipient strain in transformation assays), and the same strain transformed with the empty vector pMBLe, to have a comparison under the same isogenic background.

[1] = tested on: E. coli TOP10F´ pMBLe/KPC-2; assay: MIC by broth microdilution, KPC-2-producing recombinant clone; format: cell-based; details: Escherichia coli, 50 µM IPTG, combinations given as β-lactam/inhibitor, read-out: Minimum inhibitory concentration
Experimental: (§3) Ligation mixtures were transformed in chemically competent E. coli TOP10F´ cells, and recombinant clones were selected in Lysogeny broth (LB) agar supplemented with 20 µg/mL gentamicin or 30 µg/mL kanamycin, depending on whether the constructions were obtained in pMBLe or pET24a(+) vectors, respectively. Recombinant plasmids of the selected clones were extracted and sequenced to verify the identity of bla genes and their proper insertion.
as §2, with “IPTG.” for “IPTG. Also, as control strains we included the E. coli Top10F’ (used as recipient strain in transformation assays), and the same strain transformed with the empty vector pMBLe, to have a comparison under the same isogenic background.”

KPC-14 [2] = target: T1, KPC-14 (Klebsiella pneumoniae, UniProt Q9F663, DEL241-242); assay: Steady-state kinetics of β-lactam hydrolysis by KPC-14; format: biochemical; details: for kcat / Km: KPC-14
T1 construct: amplify the entire blaKPC-14 gene with the cloning primers; made in house; host or cells: E. coli BL21(DE3), pET24a(+)
T1 sequence (Q9F663 25-240, added parts left off, stated change not applied): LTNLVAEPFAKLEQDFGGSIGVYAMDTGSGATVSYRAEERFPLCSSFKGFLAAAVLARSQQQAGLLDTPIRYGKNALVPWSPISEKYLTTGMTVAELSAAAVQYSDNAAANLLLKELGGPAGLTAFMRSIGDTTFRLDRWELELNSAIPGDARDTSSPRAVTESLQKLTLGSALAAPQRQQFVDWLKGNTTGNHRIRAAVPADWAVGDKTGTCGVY
Source text: (Eq. 1) v=(Vmax×[S]) / (Km+[S])
(Eq. 2) KI=KI obs / (1+[NCF]/KM(NCF))

[3] = tested on: E. coli TOP10F´ pMBLe/KPC-14; assay: MIC by broth microdilution, KPC-14-producing recombinant clone; format: cell-based, Escherichia coli; details: for MIC: Escherichia coli, E. coli TOP10F´ pMBLe/KPC-14, 50 µM IPTG, combinations given as β-lactam/inhibitor, read-out: Minimum inhibitory concentration; for MIC interpretation in KPC-14 recombinant clone: recombinant clone harboring KPC-14
Experimental: as §3
as §2, with “IPTG.” for “IPTG. Also, as control strains we included the E. coli Top10F’ (used as recipient strain in transformation assays), and the same strain transformed with the empty vector pMBLe, to have a comparison under the same isogenic background.”

KPC-14 [4] = tested on: KPC-14; set-up: method as in earlier work; details: ref 20 Oueslati et al., cited from earlier work
KPC-2 [5] = details: ceftazidime as reporter substrate, ref 20 Oueslati et al.; cited from earlier work
E. coli TOP10F´/pMBLe = assay: MIC by broth microdilution, empty-vector control clone; format: cell-based; details: Escherichia coli; E. coli TOP10F´ with empty vector pMBLe; 50 µM IPTG; combinations given as β-lactam/inhibitor; read-out: Minimum inhibitory concentration
Source text: as §1, §2

KPC-2 [6] = target: T2, KPC-2 (Klebsiella pneumoniae, UniProt Q9F663); assay: Clavulanic acid inhibition and hydrolysis, KPC-2; format: biochemical
T2 construct: The complete blaKPC-2 gene was amplified from whole DNA; made in house; host or cells: E. coli BL21(DE3), pET24a(+)
T2 sequence (Q9F663 25-293 limits assumed): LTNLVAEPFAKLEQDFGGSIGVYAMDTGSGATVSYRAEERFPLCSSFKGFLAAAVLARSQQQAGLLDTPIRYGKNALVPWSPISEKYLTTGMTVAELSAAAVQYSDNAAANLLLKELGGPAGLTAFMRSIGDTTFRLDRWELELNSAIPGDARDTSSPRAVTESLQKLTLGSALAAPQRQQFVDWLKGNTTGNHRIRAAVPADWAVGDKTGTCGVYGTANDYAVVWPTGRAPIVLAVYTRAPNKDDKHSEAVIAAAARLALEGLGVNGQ
Experimental: (§4) To assess if KPC-14 shares the same behavior, KI app and kinact values for clavulanic acid of both enzymes were determined as previously reported ([32], [33]). The initial velocity (V0) of clavulanic acid hydrolysis was monitored at 235 nm ([32]), mixing an inhibitor concentration five times the KM determined and 100 nM of enzyme. V0 obtained under this condition was considered the Vmax and was used to determine the kcat for clavulanic acid.

KPC-14 [7] = target: T1, KPC-14; assay: Clavulanic acid inhibition and hydrolysis, KPC-14; format: biochemical
Experimental: as §4

[8] = tested on: CO/N=C(\C(=O)N[C@@H]1C(=O)N2C(C(=O)O)=C(COC(N)=O)CS[C@H]12)c1ccco1; assay: purified protein, by the assay type; details: other: KPC-2, 50 mM sodium phosphate pH 7.0, room temperature
[9] = tested on: CO/N=C(\C(=O)N[C@@H]1C(=O)N2C(C(=O)[O-])=C(C[N+]3(C)CCCC3)CS[C@H]12)c1csc(N)n1; assay: purified protein, by the assay type; details: other: KPC-2, 50 mM sodium phosphate pH 7.0, room temperature
[10] = tested on: CC(C)(O/N=C(\C(=O)N[C@@H]1C(=O)N2C(C(=O)[O-])=C(C[n+]3ccccc3)CS[C@H]12)c1csc(N)n1)C(=O)O; assay: purified protein, by the assay type; details: other: KPC-2; determined with nitrocefin as reporter in competitive assays; pH 7.0
[11] = tested on: CCN1CCN(C(=O)N[C@@H](C(=O)N[C@@H]2C(=O)N3[C@@H]2SC(C)(C)[C@@H]3C(=O)O)c2ccccc2)C(=O)C1=O; assay: purified protein, by the assay type; details: other: KPC-2, 50 mM sodium phosphate pH 7.0, room temperature
[12] = tested on: CC(=O)OCC1=C(C(=O)O)N2C(=O)[C@@H](NC(=O)Cc3cccs3)[C@H]2SC1; assay: purified protein, by the assay type; details: other: KPC-2, 50 mM sodium phosphate pH 7.0, room temperature
[13] = tested on: C[C@@H](O)[C@H]1C(=O)N2C(C(=O)O)=C(S[C@@H]3CN[C@H](C(=O)N(C)C)C3)[C@H](C)[C@H]12; assay: purified protein, by the assay type; details: other: KPC-2, 50 mM sodium phosphate pH 7.0, room temperature
[14] = tested on: CO/N=C(\C(=O)N[C@@H]1C(=O)N2C(C(=O)O)=C(CSc3nc(=O)c(=O)[nH]n3C)CS[C@H]12)c1csc(N)n1; assay: purified protein, by the assay type; details: other: KPC-2; determined with nitrocefin as reporter in competitive assays; pH 7.0
[15] = tested on: C[C@@H](O)[C@H]1C(=O)N2C(C(=O)O)=C(SCCN=CN)C[C@H]12; assay: purified protein, by the assay type; details: other: KPC-2, 50 mM sodium phosphate pH 7.0, room temperature
[16] = E. coli TOP10F´ recipient strain, Mueller Hinton broth + 50 µM IPTG, combinations given as β-lactam/inhibitor
[17] = 50 mM sodium phosphate pH 7.0, room temperature
[18] = determined with nitrocefin as reporter in competitive assays

CC1(C)S[C@@H]2[C@H](NC(=O)[C@H](N)c3ccccc3)C(=O)N2[C@H]1C(=O)O [Ampicillin]
MIC (E. coli TOP10F´; [16]): 2 µg/mL | MIC [1]: 1020 µg/mL | kcat/KM fold lower, KPC-14 vs KPC-2 (KPC-14 [2]): 24 fold | kcat (KPC-14 [2]): 0.83 ± 0.02 s⁻¹ | Km (KPC-14 [2]; [17]): 95 ± 10 µM | MIC [3]: 64 µg/mL

NC(=O)[C@@H]1CC[C@@H]2CN1C(=O)N2OS(=O)(=O)O [Avibactam, avibactam]
IC50 (KPC-14 [4]; KPC-14, ceftazidime as reporter substrate): 107 nM | IC50 (KPC-2 [5]): […]

C[C@H]1[C@H](NC(=O)/C(=N\OC(C)(C)C(=O)O)c2csc(N)n2)C(=O)N1S(=O)(=O)O [Aztreonam]
MIC (E. coli TOP10F´; [16]): ≤ 0.25 µg/mL | MIC (E. coli TOP10F´/pMBLe): ≤ 0.25 µg/mL

CO/N=C(\C(=O)N[C@@H]1C(=O)N2C(C(=O)[O-])=C(C[N+]3(C)CCCC3)CS[C@H]12)c1csc(N)n1 [Cefepime]
MIC (E. coli TOP10F´; [16]): ≤ 0.25 µg/mL | MIC [1]: 1 µg/mL | MIC (E. coli TOP10F´/pMBLe): ≤ 0.25 µg/mL | hydrolytic efficiency (kcat/KM) fold increase, KPC-14 vs KPC-2 (KPC-14 [2]): 3 fold | kcat (KPC-14 [2]): 0.61 ± 0.03 s⁻¹ | Km (KPC-14 [2]; [17]): 7 ± 1 µM | MIC [3]: 1 µg/mL

CC(C)(O/N=C(\C(=O)N[C@@H]1C(=O)N2C(C(=O)[O-])=C(C[n+]3ccccc3)CS[C@H]12)c1csc(N)n1)C(=O)O [Ceftazidime]
MIC (E. coli TOP10F´; [16]): 0.12 µg/mL | MIC [1]: 2 µg/mL | MIC [3]: 32 µg/mL

CO/N=C(\C(=O)N[C@@H]1C(=O)N2C(C(=O)O)=C(CSc3nc(=O)c(=O)[nH]n3C)CS[C@H]12)c1csc(N)n1 [Ceftriaxone]
MIC (E. coli TOP10F´): ≤ 0.25 µg/mL | MIC (E. coli TOP10F´/pMBLe): ≤ 0.25 µg/mL

CC(=O)OCC1=C(C(=O)O)N2C(=O)[C@@H](NC(=O)Cc3cccs3)[C@H]2SC1 [Cephalothin]
MIC (E. coli TOP10F´; [16]): 8 µg/mL | MIC [1]: 256 µg/mL | MIC [3]: 64 µg/mL

C[C@@H](O)[C@H]1C(=O)N2C(C(=O)O)=C(SCCN=CN)C[C@H]12 [Imipenem]
MIC (E. coli TOP10F´; [16]): 0.12 µg/mL | turnover (kcat) fold reduction, KPC-14 (KPC-14 [4]): 1,000 fold | MIC [1]: 2 µg/mL | MIC (E. coli TOP10F´/pMBLe): 0.12 µg/mL | kcat/KM fold lower, KPC-14 vs KPC-2 (KPC-14 [2]): 11 fold | kcat (KPC-14 [2]): (5.93 ± 0.02) × 10^−3 s^−1 | Km (KPC-14 [2]; [18]): 0.55 ± 0.02 µM | turnover (kcat) fold decrease, KPC-14 vs KPC-2 (KPC-14 [2]; this work): 2,500 fold | MIC [3]: 0.25 µg/mL | MIC interpretation in KPC-14 recombinant clone [3]: within the susceptibility range

C[C@@H](O)[C@H]1C(=O)N2C(C(=O)O)=C(S[C@@H]3CN[C@H](C(=O)N(C)C)C3)[C@H](C)[C@H]12 [Meropenem]
MIC (E. coli TOP10F´; [16]): ≤ 0.03 µg/mL | MIC [1]: 1 µg/mL | MIC (E. coli TOP10F´/pMBLe): ≤ 0.03 µg/mL | kcat/KM fold lower, KPC-14 vs KPC-2 (KPC-14 [2]): 1,000 fold | kcat (KPC-14 [2]): (8.8000 ± 0.0001) × 10^−4 s^−1 | Km (KPC-14 [2]; [18]): 10 ± 1 µM | MIC [3]: ≤ 0.03 µg/mL | MIC interpretation in KPC-14 recombinant clone [3]: within the susceptibility range

O=C(O)[C@H]1/C(=C/CO)O[C@@H]2CC(=O)N21 [clavulanic acid]
inhibition of nitrocefin hydrolysis at 300 µM inhibitor (KPC-2 [6]; 300 µM clavulanic acid): residual hydrolytic activity | kcat (turnover of inhibitor hydrolysis) (KPC-2 [6]; 235 nm, inhibitor five times above KM, 100 nM enzyme): 11.60 ± 0.01 s⁻¹ | KM (Ki app expressed as KM) (KPC-2 [6]; nitrocefin competition): 80000 ± 8000 nM | hydrolysis of inhibitor monitored at 235 nm (KPC-14 [7]; inhibitor five times above Ki app, 100 nM enzyme): No hydrolytic activity was detected | Ki (KPC-14 [7]; nitrocefin competition, read-out: Ki app): 8500 ± 1100 nM | concentration sufficient for complete inhibition of enzyme activity (KPC-14 [7]; nitrocefin hydrolysis time courses): 16 µM

KPC-2 (Klebsiella pneumoniae)
Km [8]: 319 ± 48 µM | kcat [8]: 85 ± 8 s⁻¹ | kcat/Km [8]: 270000 ± 50000 M⁻¹ s⁻¹ | Km [9]: 59 ± 5 µM | kcat [9]: 1.31 ± 0.04 s⁻¹ | Km [10]: 1,319 ± 145^a µM | kcat [10]: 0.9 ± 0.1 s⁻¹ | kcat/Km [10]: 830 ± 40 M⁻¹ s⁻¹ | Km [11]: 97 ± 12 µM | kcat [11]: 29 ± 1 s⁻¹ | kcat/Km [11]: 300000 ± 40000 M⁻¹ s⁻¹ | Km [12]: 159 ± 15 µM | kcat [12]: 56 ± 2 s⁻¹ | kcat/Km [12]: 360000 ± 40000 M⁻¹ s⁻¹ | Km [13]: 31 ± 2 µM | kcat [13]: 2.85 ± 0.06 s⁻¹ | kcat/Km [13]: 91000 ± 6000 M⁻¹ s⁻¹ | Km [14]: 267 ± 29^a µM | kcat [14]: 52 ± 7 s⁻¹ | kcat/Km [14]: 194000 ± 6000 M⁻¹ s⁻¹ | Km [15]: 120 ± 9 µM | kcat [15]: 15 ± 0.4 s⁻¹ | kcat/Km [15]: 120000 ± 10000 M⁻¹ s⁻¹
